Source: US20240216332A1, “METHOD AND PHARMACEUTICAL COMPOSITION FOR TREATING MYOPIA” (GRAND PHARMA (CHINA) CO., LTD., priority 2021, published 2024)

Assays:
[1] = system: form deprivation myopia guinea pigs; test: Sorbinil and Zopolrestat in form deprivation myopia model, Example 9; conditions: FD, Sorbinil 100 μM, Zopolrestat 1 mM; for diopter or axial length parameter versus the vehicle group: each test time point (1-week, 2-week), FIG. 13; for corneal curvature, anterior chamber depth and lens thickness: FIG. 14
[2] = system: form deprivation myopia guinea pigs; test: Direct eye drop administration in form deprivation myopia model, Example 7; conditions: for inhibition rate on myopia: direct eye drop 25 μl twice per day, 0.5% bendazac lysine (self-made); for elongation of axial length compared with the normal saline group: eye drop twice per day for 2 weeks, statistical difference
From the text: All efficacy experiments above were repeated at least twice.

[3] = system: form deprivation myopia guinea pigs; test: m-Hydroxy methylaniline in form deprivation myopia model, Example 10; format: in vivo, guinea pig; conditions: FD; for effect of preventing or treating myopia: subconjunctival injection 100 μl once daily for 1 week, atropine 0.1%
Method: The efficacy was evaluated using the guinea pig in form deprivation myopia model described in this application. All subjects were measured for diopter and axial length. […] Diopter and axis length parameters were measured at the beginning and after the end of the efficacy experiment.

[4] = system: guinea pigs with form deprivation myopia; test: Form deprivation (FD) myopia model, peribulbar injection, Example 3; conditions: for induced myopia (diopter) / myopia inhibition rate compared with normal saline group: peribulbar injection once daily (bendazac lysine 0.5 mg/day; atropine 0.1%, 100 μL)
[5] = system: form deprivation myopia (FDM) guinea pigs; test: Choroidal thickness (OCT) in FDM model, Example 6; format: in vivo, guinea pig
Method: (§1) The lenses were purchased from Wenzhou Focusee Technology Co. Ltd. The specific parameters were: center degree 4D, base curve 16 mm, and diameter 11.8 mm. The lenses were fixed in front of the right eye (experimental eye) of the guinea pig and the left eye (fellow eye) was left untreated. […] The choroidal thickness of all eyes in the two myopia models was detected by Spectralis HRA+OCT (Heidelberg Engineering, Heidelberg, Germany) at 30-60 min after the last administration. […] The statistical method was an independent sample T-test.

[6] = system: lens induced myopia (LIM) guinea pigs; test: Choroidal thickness (OCT) in LIM model, Example 6; format: in vivo, guinea pig; conditions: 0.5% bendazac lysine (BDL(S)) subconjunctival injection once daily for 1 week, 30-60 min after last administration
Method: as §1

[7] = system: guinea pigs with lens induced myopia; test: Lens induced (LI, -4D lens) myopia model, peribulbar injection, Example 3; format: in vivo, guinea pig; conditions: bendazac lysine 0.5 mg/day peribulbar injection
[8] = system: form deprivation myopia (FDM) guinea pigs; test: Dose-response of bendazac lysine (0.01%-0.5%) in form deprivation myopia model, Example 5
From the text: To be more intuitive, percentage are converted to milligram units when plotting.

[9] = system: form deprivation myopia guinea pigs; test: Lysine alone and bendazac alone in form deprivation myopia model, Example 8; format: in vivo, guinea pig; conditions: FD; for progress of myopia (diopter becoming negative, vitreous chamber depth, axial length): subconjunctival injection 100 μl once daily for 2 weeks, equimolar (11.669 mM) preparations, FIG. 8; for ocular abnormalities / pupil, corneal curvature, anterior chamber depth and lens thickness: subconjunctival injection once daily for 2 weeks; for pupil, corneal curvature, anterior chamber depth and lens thickness: FIGS. 10 and 11; for myopia inhibition rate compared with DMSO vehicle control group: bendazac 3.3 mg/ml (11.669 mM) subconjunctival injection 100 μl once daily
[10] = FD, 0.5% bendazac lysine, 0.1% atropine
[11] = m-hydroxy methylaniline 5 mM, FIG. 15
[12] = LI (-4D lens), 1-week of administration

Molecule: O=C1NC(=O)[C@@]2(CCOc3ccc(F)cc32)N1 [Sorbinil]
- diopter or axial length parameter versus the vehicle group [1]: no significant difference
- therapeutic effect on myopia ([1]; subconjunctival injection 100 μl once daily for 2 weeks): no therapeutic effect on myopia
- corneal curvature, anterior chamber depth and lens thickness [1]: no effect

Molecule: O=C(O)Cc1nn(Cc2nc3cc(C(F)(F)F)ccc3s2)c(=O)c2ccccc12 [Zopolrestat]
- diopter or axial length parameter versus the vehicle group [1]: no significant difference
- corneal curvature, anterior chamber depth and lens thickness [1]: no effect

Molecule: CN1[C@@H]2CC[C@H]1C[C@@H](OC(=O)C(CO)c1ccccc1)C2 (some centres unmarked) [atropine]
- therapeutic effect (diopter or axial length parameter) ([2]; FD, 0.01% atropine eye drops, same administration conditions): No therapeutic effect was observed
- inhibition rate on myopia ([2]; FD, 1-week, 0.1% atropine): 28.1%
- inhibition rate on myopia ([2]; FD, 2-week, 0.1% atropine): 36.9%
- elongation of axial length compared with the normal saline group [2, 10]: significantly inhibit elongation of axial length
- ocular adverse reactions during the administration ([2]; FD, eye drop twice per day, 0.5% bendazac lysine, 0.1% atropine): pupil dilation adverse reactions
- corneal curvature, anterior chamber and lens ([2]; FD, eye drop twice per day, 0.5% bendazac lysine, 0.1% atropine, FIG. 7): not affected
- anterior chamber depth and lens thickness ([3]; 0.1% atropine, FIG. 15): unaffected
- pupil ([3]; 0.1% atropine, all animals tested in this group): pupil dilation
- effect of preventing or treating myopia [3, 11]: normal effect for treating myopia

Molecule: O=C(O)COc1nn(Cc2ccccc2)c2ccccc12 [bendazac lysine, L-lysine (1-benzyl-1H-indazol-3-yloxy) acetate]
- corneal curvature (RCC), anterior chamber depth (ACD), lens thickness (LT) ([4]; FD and LI groups, 0.5 mg/day peribulbar injection, FIG. 2): not affected
- induced myopia (diopter) ([4]; FD, 1-week of administration): −2.15±1.09 D
- myopia inhibition rate compared with normal saline group ([4]; FD, 1-week of administration): 42.6%
- induced myopia (diopter) ([4]; FD, 2-week of administration): −3.46 D
- myopia inhibition rate compared with normal saline group ([4]; FD, 2-week of administration): 43.9%
- increase in vitreous chamber depth and axial length ([4]; FD, bendazac lysine 0.5 mg/day peribulbar injection, FIG. 1): inhibited
- corneal curvature (RCC), anterior chamber depth (ACD), lens thickness (LT) ([5]; FDM and LIM, 0.5% BDL(S)): unaffected
- mean difference in choroidal thickness between the experimental eye and the fellow eye ([5]; FDM, 0.5% bendazac lysine eye drops (BDL(S)) subconjunctival injection 100 μl once daily for 2 weeks, 30-60 min after last administration): −9.20 μm
- mean difference in choroidal thickness between the experimental and the fellow eyes [6]: −6.31 μm
- inhibition rate on myopia ([2]; FD, 1-week, 0.1% atropine): 35.5%
- inhibition rate on myopia ([2]; FD, 2-week, 0.1% atropine): 33.9%
- elongation of axial length compared with the normal saline group [2, 10]: significantly inhibit elongation of axial length
- corneal curvature, anterior chamber and lens ([2]; guinea pig, in vivo): not affected
- ocular adverse reactions during the administration ([2]; guinea pig, in vivo): no obvious ocular abnormalities
- induced myopia (diopter) [7, 12]: −3.49±1.15 D
- myopia inhibition rate compared to the normal saline group [7, 12]: 21.0%
- elongation of the vitreous chamber depth and the axial length ([7]; LI, 1 week): inhibited
- effect in terms of the parameter diopter ([8]; FDM, 0.01% bendazac lysine, 2-week, no statistical difference): slightly stronger than the negative control group
- progress of myopia, dose-response ([8]; FDM, 0.01%, 0.05%, 0.1%, 0.5% in normal saline, subconjunctival injection 100 μl once daily for 2 weeks): dose-dependently retarded the progress of myopia
- therapeutic effect on myopia (progress of diopter becoming negative) ([8]; FDM, 0.05% and 0.1% bendazac lysine preparations): significant therapeutic effect on myopia
- increase in vitreous chamber depth (VCD) and elongation of axial length (AL) ([8]; FDM, 0.05%, 0.1% and 0.5% bendazac lysine, FIG. 3): inhibit the increase in vitreous chamber depth (VCD) and the elongation of axial length (AL)
- therapeutic effect on myopia in terms of diopter, compared with 0.1% atropine ([8]; FDM, 0.5% bendazac lysine, 1-week after administration, no statistical difference): better therapeutic effect on myopia than 0.1% atropine
- anterior chamber depth, lens thickness and pupil ([8]; guinea pig, in vivo): not affected
- ocular irritation and ocular abnormalities during administration ([8]; guinea pig, in vivo): No ocular irritation and any ocular abnormalities were observed
- progress of myopia (diopter becoming negative, vitreous chamber depth, axial length) [9]: effectively inhibited the progress of diopter becoming negative
- ocular abnormalities [9]: no obvious ocular abnormalities
- pupil, corneal curvature, anterior chamber depth and lens thickness [9]: not affected

Molecule: O=C(O)COc1nn(Cc2ccccc2)c2ccccc12 [bendazac, α-[(1-benzyl-1H-indazol-3-yl)oxy] acetic acid]
- myopia inhibition rate compared with DMSO vehicle control group ([9]; 1-week): 33.4%
- mean difference in the choroidal thickness between the experimental eyes and the fellow eyes ([9]; 2-week after administration of bendazac alone, FIG. 12): −8.47 μm
- myopia inhibition rate compared with DMSO vehicle control group ([9]; 2-week): 30.1%
- elongation of axial length and increase of vitreous chamber depth compared with the DMSO vehicle group ([9]; bendazac alone, statistical difference, FIG. 9): significantly inhibited elongation of axial length and reduced the increase of vitreous chamber depth

Molecule: NCCCC[C@H](N)C(=O)O [lysine]
- progress of myopia (diopter becoming negative, vitreous chamber depth, axial length) [9]: no inhibitory effect on the progress of myopia
- ocular abnormalities [9]: no obvious ocular abnormalities
- pupil, corneal curvature, anterior chamber depth and lens thickness [9]: not affected

Molecule: m-hydroxy methylaniline
- elongation of axial length and increase of vitreous chamber depth ([3]; 1 week, m-hydroxy methylaniline 5 mM): no inhibitory effect on elongation of axial length and no slowing effect on the increase of vitreous chamber depth
- effect of preventing or treating myopia [3, 11]: no effect of preventing or treating myopia
